Assay type in all cases: cell-based
For one test, the target named is T1, Or47a/Or83b (Drosophila melanogaster, UniProt P81921+Q9VNB5).
T1 construct: Full-length cDNAs for mosquito (Anopheles gambiae) odorant receptor (OR1, OR2, OR7, OR8, OR28), and fly (Drosophila melanogaster) odorant receptor (Or47a, Or83b); expressed in transfected cells
T1 sequence (P81921 1-385): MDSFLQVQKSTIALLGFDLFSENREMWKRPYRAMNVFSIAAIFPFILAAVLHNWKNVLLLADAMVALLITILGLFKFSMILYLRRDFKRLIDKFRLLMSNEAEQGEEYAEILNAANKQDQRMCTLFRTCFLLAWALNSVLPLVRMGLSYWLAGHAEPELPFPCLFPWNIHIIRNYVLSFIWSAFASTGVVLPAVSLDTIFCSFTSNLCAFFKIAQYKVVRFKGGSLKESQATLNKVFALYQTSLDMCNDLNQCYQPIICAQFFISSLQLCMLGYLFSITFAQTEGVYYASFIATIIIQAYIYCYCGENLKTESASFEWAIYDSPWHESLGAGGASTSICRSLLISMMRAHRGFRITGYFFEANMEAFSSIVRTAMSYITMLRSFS
T1 sequence (Q9VNB5 1-486): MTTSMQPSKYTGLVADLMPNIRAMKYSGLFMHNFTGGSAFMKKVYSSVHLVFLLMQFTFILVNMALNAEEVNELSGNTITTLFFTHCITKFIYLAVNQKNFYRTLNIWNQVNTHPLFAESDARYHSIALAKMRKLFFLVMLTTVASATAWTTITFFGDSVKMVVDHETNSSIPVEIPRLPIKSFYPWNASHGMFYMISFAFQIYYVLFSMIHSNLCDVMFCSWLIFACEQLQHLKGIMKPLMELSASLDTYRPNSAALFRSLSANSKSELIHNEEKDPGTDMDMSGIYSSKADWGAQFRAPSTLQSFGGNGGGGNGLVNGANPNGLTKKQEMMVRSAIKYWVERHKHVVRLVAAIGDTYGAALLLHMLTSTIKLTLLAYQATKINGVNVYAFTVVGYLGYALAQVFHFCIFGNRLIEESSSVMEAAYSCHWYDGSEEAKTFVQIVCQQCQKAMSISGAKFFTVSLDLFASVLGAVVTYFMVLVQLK
Briefly: Ca2+-imaging of stable Flip-In T-Rex cell line Or47a/Or83b. To be noted: for inhibition at 4 µM: compound applied at 4 μM, read-out: Percent Inhibition OR47a OR83b. A digest of the protocol:
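Flp-In T-REx stable lines (Drosophila Or47a/Or83b or mouse 5HT3), 10,000 cells/well cultured 2 days, induced with tetracycline 1 day before assay.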

For the next test, the target named is T2, TRP channel (TRPM8) (Mus musculus, UniProt Q8R4D5).
T2 construct: Full-length cDNAs for mosquito (Anopheles gambiae) odorant receptor (OR1, OR2, OR7, OR8, OR28), and fly (Drosophila melanogaster) odorant receptor (Or47a, Or83b), mouse TRP channel (TRPM8); expressed in transfected cells
Briefly: Ca2+-imaging of stable HEK293T cell line TRPM8. To be noted: HEK-293T; compound applied at 4 μM; read-out: Percent Inhibition TRPM8. A digest of the protocol:
(§1)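 Stable HEK293T lines: Anopheles ORs co-expressed with co-receptor OR7, or mouse TRPM8 alone. Cells loaded with Ca-4 dye 1.5 hr at room temperature. Compound added with odorant solution in HBSS. Ca2+ rise read as fluorescence at 525 nm (excitation 485 nm).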

Another test addresses OR28/OR7 (Anopheles gambiae, UniProt A0A1S4GFY3+Q7QCC7). Briefly: Ca2+-imaging of stable HEK293T cell line OR28/OR7. As to conditions: for inhibition at 4 µM: HEK-293T, compound applied at 4 μM, read-out: Percent Inhibition OR28 OR7; for IC50: Table B, read-out: IC50 OR28. In outline:
as §1

OR28/OR7, sequence (A0A1S4GFY3 entry or part of it): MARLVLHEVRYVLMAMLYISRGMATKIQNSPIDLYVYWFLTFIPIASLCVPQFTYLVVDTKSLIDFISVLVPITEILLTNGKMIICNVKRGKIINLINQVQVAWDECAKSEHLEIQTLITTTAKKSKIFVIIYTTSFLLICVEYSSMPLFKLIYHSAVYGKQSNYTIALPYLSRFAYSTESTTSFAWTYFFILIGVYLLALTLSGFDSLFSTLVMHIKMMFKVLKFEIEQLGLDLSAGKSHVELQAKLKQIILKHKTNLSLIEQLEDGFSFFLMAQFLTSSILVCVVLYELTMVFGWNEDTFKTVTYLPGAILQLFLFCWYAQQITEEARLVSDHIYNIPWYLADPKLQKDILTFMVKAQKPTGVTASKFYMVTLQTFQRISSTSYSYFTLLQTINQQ
OR28/OR7, sequence (Q7QCC7 whole entry): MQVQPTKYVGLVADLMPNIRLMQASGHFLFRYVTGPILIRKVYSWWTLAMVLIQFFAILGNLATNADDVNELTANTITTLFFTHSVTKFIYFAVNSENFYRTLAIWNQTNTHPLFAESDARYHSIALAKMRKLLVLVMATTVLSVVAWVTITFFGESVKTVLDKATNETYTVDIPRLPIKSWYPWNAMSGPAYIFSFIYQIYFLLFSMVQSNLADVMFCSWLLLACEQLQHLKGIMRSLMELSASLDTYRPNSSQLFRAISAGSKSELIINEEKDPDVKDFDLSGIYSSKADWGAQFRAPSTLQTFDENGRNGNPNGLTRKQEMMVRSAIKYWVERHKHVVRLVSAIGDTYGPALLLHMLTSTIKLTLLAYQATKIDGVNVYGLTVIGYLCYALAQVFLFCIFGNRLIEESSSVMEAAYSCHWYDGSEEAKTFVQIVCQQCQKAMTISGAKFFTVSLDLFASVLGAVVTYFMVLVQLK
T2 sequence (Q8R4D5 whole entry): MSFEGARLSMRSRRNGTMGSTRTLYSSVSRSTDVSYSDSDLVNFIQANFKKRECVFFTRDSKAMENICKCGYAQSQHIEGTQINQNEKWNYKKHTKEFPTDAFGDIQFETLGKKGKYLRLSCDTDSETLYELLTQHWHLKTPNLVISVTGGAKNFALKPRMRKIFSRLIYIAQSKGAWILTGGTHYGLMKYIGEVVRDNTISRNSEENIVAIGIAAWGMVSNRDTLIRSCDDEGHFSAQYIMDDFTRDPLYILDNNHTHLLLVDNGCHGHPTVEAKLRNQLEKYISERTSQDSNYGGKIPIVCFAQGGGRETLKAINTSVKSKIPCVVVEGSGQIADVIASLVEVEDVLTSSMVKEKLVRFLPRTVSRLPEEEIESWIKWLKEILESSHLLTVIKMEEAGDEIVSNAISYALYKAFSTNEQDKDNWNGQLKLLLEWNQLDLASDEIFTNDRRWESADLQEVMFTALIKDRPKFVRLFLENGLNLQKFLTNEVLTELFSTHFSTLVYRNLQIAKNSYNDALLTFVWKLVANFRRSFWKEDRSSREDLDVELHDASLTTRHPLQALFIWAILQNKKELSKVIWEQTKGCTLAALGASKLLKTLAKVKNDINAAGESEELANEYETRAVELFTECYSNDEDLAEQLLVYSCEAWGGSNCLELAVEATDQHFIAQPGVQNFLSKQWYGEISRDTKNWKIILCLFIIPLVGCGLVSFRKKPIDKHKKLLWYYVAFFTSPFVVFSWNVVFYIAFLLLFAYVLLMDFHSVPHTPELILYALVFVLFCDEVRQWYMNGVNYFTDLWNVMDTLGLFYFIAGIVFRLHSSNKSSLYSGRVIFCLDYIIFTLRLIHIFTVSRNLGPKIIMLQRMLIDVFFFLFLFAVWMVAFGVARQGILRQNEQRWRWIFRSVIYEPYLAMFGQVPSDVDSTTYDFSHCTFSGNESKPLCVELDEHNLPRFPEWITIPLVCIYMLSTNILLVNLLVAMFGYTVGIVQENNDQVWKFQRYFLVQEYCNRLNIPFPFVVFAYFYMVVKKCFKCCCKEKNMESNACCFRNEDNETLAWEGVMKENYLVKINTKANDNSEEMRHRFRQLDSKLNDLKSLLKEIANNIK

Broadly, the inhibition is the share of the control response that was lost under treatment. What is called IC50 is the point on the concentration scale where inhibition reaches its midpoint. Turning to `C=C[C@@](C)(O)CCC1C(=C)CCC2[C@@](C)(CO)CCC[C@]12C` (stereo partly drawn) [RU-0001327], the figures for the inhibition at 4 µM at Or47a/Or83b, on TRP channel (TRPM8) and at OR28/OR7 were below 25%, below 25% and above 75%, respectively. Moreover, the IC50 on OR28/OR7 was above 1000 nM.

As for `COCCN(Cc1cc(Cl)ccc1OS(=O)(=O)c1ccc(F)cc1)C(=O)C1CCC1` [RU-0035287], the IC50 at Or47a/Or83b (Table B, read-out: IC50 OR47a) is below 100 nM; at OR28/OR7 it was below 100 nM. Besides, the inhibition at 4 µM was 51 to 74% at Or47a/Or83b, below 25% on TRP channel (TRPM8) and above 75% at OR28/OR7.

Values taken from US20130324522A1, “INSECT ODORANT RECEPTOR ANTAGONISTS” (THE ROCKEFELLER UNIVERSITY, priority 2010, published 2013).
